Test results from patent US20050130252A1, “Stabilized susceptibility tests of aerobic pathogens” (Wyeth Holdings Corporation, priority 2003, published 2005).
≈ marks a conversion by molar mass, not a printed value. Where two headings read alike, the source gives them in different places.

Experiments:
Assay type in all cases: cell-based
[1] = test system: Escherichia coli GC2203 ATCC Control; assay: Broth microdilution MIC; details: for In Vitro Activity of Tigecycline: Broth, E. coli GC2203 ATCC Control; for MIC: Escherichia coli, E. coli GC2203 (ATCC Control), read-out: Minimal Inhibitory Concentration
Description: (§1) The process for preparing susceptibility test medium are the following steps: • a. Preparing Mueller Hinton Broth II medium by adding 22 grams powdered media to 1.0 liter distilled water; • b. Autoclaving (121° C., 15 psi, 15 minutes) and cooling the medium; • c. Adding Oxyrase® up to about 10% final volume and keeping at 35-37° C. in an incubator for 30 minutes; • d. Adding about 50 μL to each well of a 96 well microtiter plate; • e. Weighing drug and adding broth to drug to bring up to about (standard 128 μg/ml); • f. Adding 50 μL of the drug to the first column of the titer plate; • g. Diluting by two-fold serial diluting across or down the plate. • h. Preparing a Prompt™ inoculum at 10^8 CFU/ml; • i. Diluting inoculum 1:100 in the broth at […] in 9.9 ml (1:100) is 10^6 colony forming units (CFU) forming the adjusted inoculum; • j. Adding 50 μL of the adjusted inoculum to the wells of the microtiter plate; • k. Incubating the plates at 35-37° C. for 18-22 hours; and • l. Reading, with the unaided eye, the MIC.
(§2) The in vitro activities of tigecycline and control antibiotics were determined by the broth microdilution method as recommended by the NCCLS. (National Committee for Clinical Laboratory Standards, 2003. Methods for Dilution Antimicrobial Susceptibility Tests for Bacteria That Grow Aerobically; Approved Standards: M7-A6, Sixth ed, vol. 23., National Committee for Clinical Laboratory Standards Wayne, Pa.) was used for the standard procedures. MBH with 5% lysed horse blood was used for testing S. pneumoniae and Haemophilus Test Medium was used for testing H. influenzae. Oxyrase® (Oxyrase Inc, Mansfield, Ohio) was used according to the manufacturer's instructions by adding 1 ml of Oxyrase® to 50 ml of media. Media age studies were performed by preparing MHB in multiple flasks, then storing the media under various conditions. MICs were usually performed in duplicate on each day of testing. Storage under anaerobic conditions was conducted in an anaerobic chamber (MACS MG 1000, Don Whitley Scientific LTD). The pH of the media was determined by pH meter (Corning 430). A comparison of the in vitro activity of tigecycline by agar and broth dilution methodolgies with and without Oxyrase® against clinical isolates is shown in Table 1.

[2] = test system: Escherichia coli GC4560 IMP mutant; assay: Broth microdilution MIC; details: E. coli GC4560 IMP mutant
Description: as §1, §2

[3] = test system: Escherichia coli GC1073 tet(B) wt; assay: Broth microdilution MIC; details: for In Vitro Activity of Tigecycline: Broth, E. coli GC1073 tet(B) wt
Description: as §1, §2

[4] = test system: Enterococcus faecalis GC2242 Vancomycin-Resistant; assay: Broth microdilution MIC; details: for In Vitro Activity of Tigecycline: Broth, E. faecalis GC2242 Vancomycin-Resistant; for MIC: Enterococcus faecalis, read-out: Minimal Inhibitory Concentration
Description: as §1, §2

[5] = test system: Escherichia coli GC2270 tet(M); assay: Broth microdilution MIC; details: for MIC: Escherichia coli, read-out: Minimal Inhibitory Concentration
Description: as §1, §2

[6] = test system: S. pneumoniae ATCC 49619; assay: Broth microdilution MIC
Description: as §1, §2

[7] = test system: Escherichia coli GC1073 tet(B) wt; assay: Agar dilution in vitro activity; details: E. coli GC1073 tet(B) wt
Description: as §2, with “Oxyrase® (Oxyrase Inc, Mansfield, Ohio) was used according to the manufacturer's instructions by adding 1 ml of Oxyrase® to 50 ml of media.” left out

[8] = test system: Enterococcus faecalis GC2242 Vancomycin-Resistant; assay: Agar dilution in vitro activity; details: E. faecalis GC2242 Vancomycin-Resistant
Description: as §2, with “Oxyrase® (Oxyrase Inc, Mansfield, Ohio) was used according to the manufacturer's instructions by adding 1 ml of Oxyrase® to 50 ml of media.” left out

[9] = test system: Staphylococcus aureus GC2216 ATCC Control; assay: Agar dilution in vitro activity; details: S. aureus GC2216 ATCC Control
Description: as §2, with “Oxyrase® (Oxyrase Inc, Mansfield, Ohio) was used according to the manufacturer's instructions by adding 1 ml of Oxyrase® to 50 ml of media.” left out

[10] = test system: Staphylococcus aureus GC1131 Clinical isolate; assay: Agar dilution in vitro activity; details: S. aureus GC1131
Description: as §2, with “Oxyrase® (Oxyrase Inc, Mansfield, Ohio) was used according to the manufacturer's instructions by adding 1 ml of Oxyrase® to 50 ml of media.” left out

[11] = test system: Staphylococcus aureus GC4536 Smith MP -In Vivo; assay: Agar dilution in vitro activity; details: S. aureus GC4536 Smith
Description: as §2, with “Oxyrase® (Oxyrase Inc, Mansfield, Ohio) was used according to the manufacturer's instructions by adding 1 ml of Oxyrase® to 50 ml of media.” left out

[12] = test system: Escherichia coli GC4559 parent GC4560; assay: Agar dilution in vitro activity; details: E. coli GC4559
Description: as §2, with “Oxyrase® (Oxyrase Inc, Mansfield, Ohio) was used according to the manufacturer's instructions by adding 1 ml of Oxyrase® to 50 ml of media.” left out

[13] = test system: Escherichia coli GC2270 tet(M); assay: Agar dilution in vitro activity; details: E. coli GC2270 tet(M)
Description: as §2, with “Oxyrase® (Oxyrase Inc, Mansfield, Ohio) was used according to the manufacturer's instructions by adding 1 ml of Oxyrase® to 50 ml of media.” left out

[14] = Table 8, Mueller Hinton Broth + Oxyrase, n = 240
[15] = Table 8, Mueller Hinton Broth, n = 320

SMILES: CN(C)c1cc(NC(=O)CNC(C)(C)C)c(O)c2c1C[C@H]1C[C@H]3[C@H](N(C)C)C(O)=C(C(N)=O)C(=O)[C@@]3(O)C(O)=C1C2=O [Tigecycline, tigecycline]
- In Vitro Activity of Tigecycline ([1]; Oxyrase (2%)): 0.12
- In Vitro Activity of Tigecycline ([1]; no Oxyrase): 0.25
- MIC ([1]; 336 h, Aged Media (two weeks at RT)): 0.12 mg/L (≈ 0.205 µM)
- MIC ([1]; Fresh Media): 0.03 mg/L (≈ 0.0512 µM)
- In Vitro Activity of Tigecycline ([2]; Oxyrase (2%)): 0.03
- In Vitro Activity of Tigecycline ([2]; no Oxyrase): 0.25
- In Vitro Activity of Tigecycline ([3]; Oxyrase (2%)): 0.12
- In Vitro Activity of Tigecycline ([3]; no Oxyrase): 0.50
- MIC ([3]; Escherichia coli, read-out: Minimal Inhibitory Concentration): 0.12 mg/L (≈ 0.205 µM)
- In Vitro Activity of Tigecycline ([4]; Oxyrase (2%)): 0.12
- In Vitro Activity of Tigecycline ([4]; no Oxyrase): 0.50
- MIC ([4]; 336 h): 0.12 mg/L (≈ 0.205 µM)
- MIC [4]: 0.06 mg/L (≈ 0.102 µM)
- In Vitro Activity of Tigecycline ([5]; Broth, no Oxyrase, E. coli GC2270 tet(M)): 0.50
- MIC ([5]; 336 h): 0.25 mg/L (≈ 0.427 µM)
- MIC [5]: 0.06 mg/L (≈ 0.102 µM)
- Number of Occurrences of MIC 0.004 ug/ml [6, 14]: 6
- Number of Occurrences of MIC 0.008 ug/ml [6, 14]: 73
- Number of Occurrences of MIC 0.016 ug/ml [6, 14]: 137
- Number of Occurrences of MIC 0.03 ug/ml [6, 14]: 21
- Number of Occurrences of MIC 0.06 ug/ml [6, 14]: 3
- Number of Occurrences of MIC 0.016 ug/ml [6, 15]: 1
- Number of Occurrences of MIC 0.03 ug/ml [6, 15]: 54
- Number of Occurrences of MIC 0.06 ug/ml [6, 15]: 188
- Number of Occurrences of MIC 0.12 ug/ml [6, 15]: 48
- Number of Occurrences of MIC 0.25 ug/ml [6, 15]: 29
- In Vitro Activity of Tigecycline ([7]; Oxyrase (10%)): 0.25
- In Vitro Activity of Tigecycline ([7]; no Oxyrase): 0.25
- In Vitro Activity of Tigecycline ([8]; Oxyrase (10%)): 0.12
- In Vitro Activity of Tigecycline ([8]; no Oxyrase): 0.12
- In Vitro Activity of Tigecycline ([9]; Oxyrase (10%)): 0.25
- In Vitro Activity of Tigecycline ([9]; no Oxyrase): 0.5
- In Vitro Activity of Tigecycline ([10]; Oxyrase (10%)): 0.25
- In Vitro Activity of Tigecycline ([10]; no Oxyrase): 0.25
- In Vitro Activity of Tigecycline ([11]; Oxyrase (10%)): 0.12
- In Vitro Activity of Tigecycline ([11]; no Oxyrase): 0.25
- In Vitro Activity of Tigecycline ([12]; Oxyrase (10%)): 0.12
- In Vitro Activity of Tigecycline ([12]; no Oxyrase): 0.25
- In Vitro Activity of Tigecycline ([13]; Oxyrase (10%)): 0.12
- In Vitro Activity of Tigecycline ([13]; no Oxyrase): 0.25
